Source: paper PMC5218480 (PLoS ONE, 2017)

Tested on: MV-4-11 cells
Test: Gene expression microarray analysis (Affymetrix PrimeView) and GSEA
Assay type: cell-based, human
Design: RFU PODN (11730768_x_at) / Fold change /veh PODN (11730768_x_at) / RFU LINC00158 (11744669_a_at) / Fold change /veh LINC00158 (11744669_a_at) / RFU DUSP10 (11751237_a_at) / Fold change /veh DUSP10 (11751237_a_at) / RFU ID3 (11757404_x_at) / Fold change /veh ID3 (11757404_x_at) / RFU PLEKHG5 (11737974_s_at) / Fold change /veh PLEKHG5 (11737974_s_at) / RFU LRRC4B (11730491_at) / Fold change /veh LRRC4B (11730491_at) / RFU GIMAP4 (11747438_a_at) / Fold change /veh GIMAP4 (11747438_a_at) / RFU KRT8 (11758183_x_at) / Fold change /veh KRT8 (11758183_x_at) / RFU CNN1 (11734310_a_at) / Fold change /veh CNN1 (11734310_a_at) / RFU VPS37D (11726825_at) / Fold change /veh VPS37D (11726825_at) / RFU C10orf10 (11716522_x_at) / Fold change /veh C10orf10 (11716522_x_at) / RFU KIR2DL2 /// KIR2DL4 /// KIR2DL5A /// KIR2DL5B /// KIR2DS1 /// KIR2DS2 /// KIR2DS3 /// KIR2DS4 /// KIR3DL3 /// KIR3DL3 /// KIR3DS1 (11738374_at) / Fold change /veh KIR2DL2 /// KIR2DL4 /// KIR2DL5A /// KIR2DL5B /// KIR2DS1 /// KIR2DS2 /// KIR2DS3 /// KIR2DS4 /// KIR3DL3 /// KIR3DL3 /// KIR3DS1 (11738374_at) / RFU C1QL1 (11718748_at) / Fold change /veh C1QL1 (11718748_at) / RFU TMPRSS4 (11747572_a_at) / Fold change /veh TMPRSS4 (11747572_a_at) / RFU HAMP (11756126_x_at) / Fold change /veh HAMP (11756126_x_at) / RFU RNFT2 (11725882_a_at) / Fold change /veh RNFT2 (11725882_a_at) / RFU NR4A2 (11747474_a_at) / Fold change /veh NR4A2 (11747474_a_at) / RFU ABCC12 (11746883_a_at) / Fold change /veh ABCC12 (11746883_a_at) / RFU TMEM136 (11760407_x_at) / Fold change /veh TMEM136 (11760407_x_at) / RFU CLDN22 /// WWC2 (11732394_at) / Fold change /veh CLDN22 /// WWC2 (11732394_at) / RFU HLA-DPB1 (11760878_x_at) / Fold change /veh HLA-DPB1 (11760878_x_at) / RFU SPINT1 (11716480_a_at) / Fold change /veh SPINT1 (11716480_a_at) / RFU GAP43 (11754022_s_at) / Fold change /veh GAP43 (11754022_s_at) / RFU A4GNT (11735810_at) / Fold change /veh A4GNT (11735810_at) / RFU PRB3 (11715151_x_at) / Fold change /veh PRB3 (11715151_x_at) / RFU TUBB4B (11761932_at) / Fold change /veh TUBB4B (11761932_at) / RFU CAPN14 (11732068_a_at) / Fold change /veh CAPN14 (11732068_a_at) / RFU TMCC2 (11721928_a_at) / Fold change /veh TMCC2 (11721928_a_at) / RFU IRGQ (11745062_a_at) / Fold change /veh IRGQ (11745062_a_at) / RFU FAM174B (11720279_a_at) / Fold change /veh FAM174B (11720279_a_at) / RFU TMPRSS4 (11748680_a_at) / Fold change /veh TMPRSS4 (11748680_a_at) / RFU FAM212B (11763350_a_at) / Fold change /veh FAM212B (11763350_a_at) / RFU PLEKHG5 (11743358_a_at) / Fold change /veh PLEKHG5 (11743358_a_at) / RFU ZSCAN30 (11745921_a_at) / Fold change /veh ZSCAN30 (11745921_a_at) / RFU CMKLR1 (11741424_a_at) / Fold change /veh CMKLR1 (11741424_a_at) / RFU LOC101060620 /// MAPK8IP1 (11723275_at) / Fold change /veh LOC101060620 /// MAPK8IP1 (11723275_at) / RFU SPTSSB (11747773_x_at) / Fold change /veh SPTSSB (11747773_x_at) / RFU PRSS12 (11739890_at) / Fold change /veh PRSS12 (11739890_at) / RFU BIN1 (11741810_x_at) / Fold change /veh BIN1 (11741810_x_at) / RFU WNT11 (11732464_a_at) / Fold change /veh WNT11 (11732464_a_at) / RFU C10orf10 (11716521_a_at) / Fold change /veh C10orf10 (11716521_a_at) / RFU C5orf56 (11738089_at) / Fold change /veh C5orf56 (11738089_at) / RFU CYB561 (11721691_x_at) / Fold change /veh CYB561 (11721691_x_at) / RFU ANKRD19P (11752326_a_at) / Fold change /veh ANKRD19P (11752326_a_at) / RFU OR2T12 /// OR2T33 /// OR2T8 (11738714_s_at) / Fold change /veh OR2T12 /// OR2T33 /// OR2T8 (11738714_s_at) / RFU VCAN (11748164_a_at) / Fold change /veh VCAN (11748164_a_at) / RFU JSRP1 (11732532_at) / Fold change /veh JSRP1 (11732532_at) / RFU KRTAP10-11 (11738290_x_at) / Fold change /veh KRTAP10-11 (11738290_x_at) / RFU MYO3A (11730013_a_at) / Fold change /veh MYO3A (11730013_a_at) / RFU EBF3 (11725865_a_at) / Fold change /veh EBF3 (11725865_a_at) / RFU CAMK2N1 (11719241_x_at) / Fold change /veh CAMK2N1 (11719241_x_at) / RFU C5orf56 (11738088_a_at) / Fold change /veh C5orf56 (11738088_a_at) / RFU OLFML3 (11715873_a_at) / Fold change /veh OLFML3 (11715873_a_at) / RFU LOC100653217 /// NTM (11731650_a_at) / Fold change /veh LOC100653217 /// NTM (11731650_a_at) / RFU MAPK11 (11762145_a_at) / Fold change /veh MAPK11 (11762145_a_at) / RFU FIZ1 (11724087_x_at) / Fold change /veh FIZ1 (11724087_x_at) / RFU OASL (11726364_x_at) / Fold change /veh OASL (11726364_x_at) / RFU SOX15 (11748057_x_at) / Fold change /veh SOX15 (11748057_x_at) / RFU CD79A (11719716_a_at) / Fold change /veh CD79A (11719716_a_at) / RFU HIST1H1D (11736915_at) / Fold change /veh HIST1H1D (11736915_at) / RFU CASKIN2 (11723855_a_at) / Fold change /veh CASKIN2 (11723855_a_at) / RFU LOC730098 (11760151_x_at) / Fold change /veh LOC730098 (11760151_x_at) / RFU OR4N2 (11742367_at) / Fold change /veh OR4N2 (11742367_at) / RFU PRRT2 (11749266_a_at) / Fold change /veh PRRT2 (11749266_a_at) / RFU SNX32 (11753110_a_at) / Fold change /veh SNX32 (11753110_a_at) / RFU CDHR5 (11726645_a_at) / Fold change /veh CDHR5 (11726645_a_at) / RFU RCAN1 (11760418_a_at) / Fold change /veh RCAN1 (11760418_a_at) / RFU FAM167A (11723789_a_at) / Fold change /veh FAM167A (11723789_a_at) / RFU FAM26E (11764081_at) / Fold change /veh FAM26E (11764081_at) / RFU ISYNA1 (11749810_s_at) / Fold change /veh ISYNA1 (11749810_s_at) / RFU ACY1 (11761880_at) / Fold change /veh ACY1 (11761880_at) / RFU 11764098_at / Fold change /veh 11764098_at / RFU SAMD14 (11745864_x_at) / Fold change /veh SAMD14 (11745864_x_at) / RFU NPB (11741838_a_at) / Fold change /veh NPB (11741838_a_at) / RFU TMPRSS6 (11731388_a_at) / Fold change /veh TMPRSS6 (11731388_a_at) / RFU KRTAP10-2 (11738614_at) / Fold change /veh KRTAP10-2 (11738614_at) / RFU ARHGAP8 /// PRR5-ARHGAP8 (11727945_x_at) / Fold change /veh ARHGAP8 /// PRR5-ARHGAP8 (11727945_x_at) / RFU KRTAP5-7 /// NADSYN1 (11734609_at) / Fold change /veh KRTAP5-7 /// NADSYN1 (11734609_at) / RFU RASL12 (11751679_a_at) / Fold change /veh RASL12 (11751679_a_at) / RFU CDKN2B (11736163_a_at) / Fold change /veh CDKN2B (11736163_a_at) / RFU PRF1 (11729649_at) / Fold change /veh PRF1 (11729649_at) / RFU, ZNF638 /// ZNF638-IT1 / Fold change vs veh, ZNF638 /// ZNF638-IT1 / RFU, PANK3 / Fold change vs veh, PANK3 / RFU, SH3YL1 / Fold change vs veh, SH3YL1 / RFU, ZEB2 / Fold change vs veh, ZEB2 / RFU, NRIP1 / Fold change vs veh, NRIP1 / RFU, PTTG1IP / Fold change vs veh, PTTG1IP / RFU, CAPN2 / Fold change vs veh, CAPN2 / RFU, MED14 / Fold change vs veh, MED14 / RFU, SNORA58 / Fold change vs veh, SNORA58 / RFU, C1orf63 / Fold change vs veh, C1orf63 / RFU, LRRFIP1 / Fold change vs veh, LRRFIP1 / RFU, NDUFAF7 / Fold change vs veh, NDUFAF7 / RFU, SLC12A2 / Fold change vs veh, SLC12A2 / RFU, IBTK / Fold change vs veh, IBTK / RFU, ESF1 / Fold change vs veh, ESF1 / Fold change vs veh, TMEM50B / RFU, TAOK1 / Fold change vs veh, TAOK1 / RFU, ACBD3 / Fold change vs veh, ACBD3 / RFU, TMA16 / Fold change vs veh, TMA16 / RFU, RWDD3 / Fold change vs veh, RWDD3 / RFU, BCAT1 / Fold change vs veh, BCAT1 / RFU, EDEM3 / Fold change vs veh, EDEM3 / RFU, TMEM33 / Fold change vs veh, TMEM33 / RFU, WDR75 / Fold change vs veh, WDR75 / RFU, AHCTF1 / Fold change vs veh, AHCTF1 / RFU, TFRC / Fold change vs veh, TFRC / RFU, ZDHHC17 / Fold change vs veh, ZDHHC17 / RFU, NOM1 / Fold change vs veh, NOM1 / RFU, ARL8B / Fold change vs veh, ARL8B / RFU, ZBTB11 / Fold change vs veh, ZBTB11 / RFU, TAMM41 / Fold change vs veh, TAMM41 / RFU, KIAA1704 /// LOC100996395 / Fold change vs veh, KIAA1704 /// LOC100996395 / RFU, ING1 / Fold change vs veh, ING1 / RFU, TRMT61B / Fold change vs veh, TRMT61B / RFU, FUBP3 / Fold change vs veh, FUBP3 / RFU, TP53 / Fold change vs veh, TP53 / RFU, TNKS2 / Fold change vs veh, TNKS2 / RFU, ZFP14 / Fold change vs veh, ZFP14 / RFU, ACTR2 / Fold change vs veh, ACTR2 / RFU, PPP3R1 / Fold change vs veh, PPP3R1 / RFU, PIK3R1 / Fold change vs veh, PIK3R1 / RFU, HNRNPA1 / Fold change vs veh, HNRNPA1 / RFU, RNF170 / Fold change vs veh, RNF170 / RFU, ZNF28 / Fold change vs veh, ZNF28 / RFU, RNGTT / Fold change vs veh, RNGTT / RFU, OGT / Fold change vs veh, OGT / RFU, BRD1 / Fold change vs veh, BRD1 / RFU, MARS / Fold change vs veh, MARS / RFU, ZNF655 / Fold change vs veh, ZNF655 / RFU, FAHD1 / Fold change vs veh, FAHD1 / RFU, BDP1 / Fold change vs veh, BDP1 / RFU, LRRCC1 / Fold change vs veh, LRRCC1 / RFU, ARID1A / Fold change vs veh, ARID1A / RFU, ZNF146 / Fold change vs veh, ZNF146 / RFU, ZNF330 / Fold change vs veh, ZNF330 / RFU, GPN3 / Fold change vs veh, GPN3 / RFU, C9orf123 / Fold change vs veh, C9orf123 / RFU, N4BP2L2 / Fold change vs veh, N4BP2L2 / RFU, ARFIP1 / Fold change vs veh, ARFIP1 / RFU, FAM179B / Fold change vs veh, FAM179B / RFU, BCL10 / Fold change vs veh, BCL10 / RFU, UHRF1BP1L / Fold change vs veh, UHRF1BP1L / RFU, BET1 / Fold change vs veh, BET1 / RFU, CNOT2 / Fold change vs veh, CNOT2 / RFU, ZNF268 / Fold change vs veh, ZNF268 / Fold change vs veh, ZNF507 / RFU, DGCR2 / Fold change vs veh, DGCR2 / RFU, WDSUB1 / Fold change vs veh, WDSUB1 / Fold change vs veh, HSP90B1 /// MIR3652 / RFU, ADSS / Fold change vs veh, ADSS / RFU, GK / Fold change vs veh, GK / RFU, ZNF148 / Fold change vs veh, ZNF148 / RFU, TAF9 / Fold change vs veh, TAF9 / RFU, SLC1A5 / Fold change vs veh, SLC1A5 / RFU, SLMO2 / Fold change vs veh, SLMO2 / RFU, ABCC4 / Fold change vs veh, ABCC4 / RFU, LOC101060439 /// RAP1B / Fold change vs veh, LOC101060439 /// RAP1B / RFU, RFX7 / Fold change vs veh, RFX7 / RFU, GTPBP10 / Fold change vs veh, GTPBP10 / RFU, CNEP1R1 / Fold change vs veh, CNEP1R1 / RFU, BIVM-ERCC5 /// ERCC5 / Fold change vs veh, BIVM-ERCC5 /// ERCC5 / RFU, ILF3 / Fold change vs veh, ILF3 / RFU 11762660_at / Fold change /veh 11762660_at / RFU VCAN (11757783_s_at) / Fold change /veh VCAN (11757783_s_at) / RFU DDX43 (11728927_at) / Fold change /veh DDX43 (11728927_at) / RFU KRT8 (11758188_x_at) / Fold change /veh KRT8 (11758188_x_at) / RFU NKD1 (11759106_at) / Fold change /veh NKD1 (11759106_at) / RFU SRD5A1 (11742802_a_at) / Fold change /veh SRD5A1 (11742802_a_at) / RFU TPSAB1 /// TPSB2 (11721975_s_at) / Fold change /veh TPSAB1 /// TPSB2 (11721975_s_at) / RFU GSTM3 (11746129_a_at) / Fold change /veh GSTM3 (11746129_a_at) / RFU IL23R (11737362_x_at) / Fold change /veh IL23R (11737362_x_at) / RFU TMEM51 (11727254_a_at) / Fold change /veh TMEM51 (11727254_a_at) / RFU PIWIL2 (11732686_x_at) / Fold change /veh PIWIL2 (11732686_x_at) / RFU ORM1 (11744905_x_at) / Fold change /veh ORM1 (11744905_x_at) / RFU CCDC152 (11743942_at) / Fold change /veh CCDC152 (11743942_at) / RFU ECM1 (11717891_a_at) / Fold change /veh ECM1 (11717891_a_at) / RFU IL23R (11748794_a_at) / Fold change /veh IL23R (11748794_a_at) / RFU TNFAIP8L3 (11732012_x_at) / Fold change /veh TNFAIP8L3 (11732012_x_at) / RFU MBOAT4 (11741988_at) / Fold change /veh MBOAT4 (11741988_at) / RFU 11764193_at / Fold change /veh 11764193_at / RFU TMEM53 (11763286_at) / Fold change /veh TMEM53 (11763286_at) / RFU MAGEB2 (11727129_at) / Fold change /veh MAGEB2 (11727129_at) / RFU TMEM200A (11744735_a_at) / Fold change /veh TMEM200A (11744735_a_at) / RFU CCDC152 (11751479_a_at) / Fold change /veh CCDC152 (11751479_a_at) / RFU FAM211A (11726209_a_at) / Fold change /veh FAM211A (11726209_a_at) / RFU RGS16 (11746705_a_at) / Fold change /veh RGS16 (11746705_a_at) / RFU VCAN (11755009_s_at) / Fold change /veh VCAN (11755009_s_at) / RFU RHOB (11743442_s_at) / Fold change /veh RHOB (11743442_s_at) / RFU RGS16 (11720943_a_at) / Fold change /veh RGS16 (11720943_a_at) / RFU RGS16 (11720944_at) / Fold change /veh RGS16 (11720944_at) / RFU, VPS4B / Fold change vs veh, VPS4B / RFU, CREB1 / Fold change vs veh, CREB1 / RFU, DNAJC13 / Fold change vs veh, DNAJC13 / RFU, GNAQ / Fold change vs veh, GNAQ / RFU, CDK5R1 / Fold change vs veh, CDK5R1 / RFU, ZRANB3 / Fold change vs veh, ZRANB3 / RFU, CUL4A / Fold change vs veh, CUL4A / RFU, CCNY / Fold change vs veh, CCNY / RFU, UFL1 / Fold change vs veh, UFL1 / RFU, COG3 / Fold change vs veh, COG3 / RFU, DIAPH2 / Fold change vs veh, DIAPH2 / RFU, SKA2 / Fold change vs veh, SKA2 / RFU, AFF3 / Fold change vs veh, AFF3 / RFU, LMF1 / Fold change vs veh, LMF1 / RFU, IPO11 / Fold change vs veh, IPO11 / RFU, DFFB / Fold change vs veh, DFFB / RFU, FOXP1 / Fold change vs veh, FOXP1 / RFU, CARD8 / Fold change vs veh, CARD8 / RFU, STRN3 / Fold change vs veh, STRN3 / RFU, ADK / Fold change vs veh, ADK / RFU, RASSF2 / Fold change vs veh, RASSF2 / RFU, WIPF1 / Fold change vs veh, WIPF1 / RFU, LARP1B / Fold change vs veh, LARP1B / RFU, RASA1 / Fold change vs veh, RASA1 / RFU, RB1 / Fold change vs veh, RB1 / RFU, PPFIA1 / Fold change vs veh, PPFIA1 / RFU, MAT2A / Fold change vs veh, MAT2A / RFU, CCT5 / Fold change vs veh, CCT5 / RFU, WDR92 / Fold change vs veh, WDR92 / RFU, CUX1 / Fold change vs veh, CUX1 / RFU, TTC7A / Fold change vs veh, TTC7A / RFU, TMEM135 / Fold change vs veh, TMEM135 / RFU, DEPTOR / Fold change vs veh, DEPTOR / RFU, CPM / Fold change vs veh, CPM / RFU, DNAJB6 / Fold change vs veh, DNAJB6 / RFU, CACNA2D3 / Fold change vs veh, CACNA2D3 / RFU, DTX4 / Fold change vs veh, DTX4 / RFU, TFCP2 / Fold change vs veh, TFCP2 / RFU, GMCL1 /// GMCL1P1 / Fold change vs veh, GMCL1 /// GMCL1P1 / RFU, AEBP2 / Fold change vs veh, AEBP2 / RFU, SNHG1 /// SNORD22 /// SNORD25 /// SNORD26 /// SNORD27 /// SNORD28 /// SNORD29 /// SNORD31 / Fold change vs veh, SNHG1 /// SNORD22 /// SNORD25 /// SNORD26 /// SNORD27 /// SNORD28 /// SNORD29 /// SNORD31 / Fold change (Aza/veh), C12orf56 (ProbeSet 11735607_a_at) / Fold change (ACY-1035/veh), C12orf56 (ProbeSet 11735607_a_at) / Fold change (Aza/veh), FGFR1OP (ProbeSet 11751329_s_at) / Fold change (ACY-1035/veh), FGFR1OP (ProbeSet 11751329_s_at) / Fold change (Aza/veh), VPS36 (ProbeSet 11739960_a_at) / Fold change (ACY-1035/veh), VPS36 (ProbeSet 11739960_a_at) / RFU SYPL1 (11715823_x_at) / Fold change /veh SYPL1 (11715823_x_at) / RFU IGFBP7 (11715501_s_at) / Fold change /veh IGFBP7 (11715501_s_at) / RFU REEP3 (11722064_at) / Fold change /veh REEP3 (11722064_at) / RFU IGLL1 (11728026_x_at) / Fold change /veh IGLL1 (11728026_x_at): dose or concentration left out as unconfirmed
Conditions: ProbeSet 11747937_a_at; LIST D

Nc1ccc(-c2cccs2)cc1NC(=O)c1ccc2c(c1)cc(C1CC1)n2CCN1CCOCC1 [ACY-1035]
RFU, DNAJB6: 348.58 RFU
